# Key:
# galium [1] = test: Test C preemergence; format: in vivo, Galium aparine; details: Galium, pre-emergence
# In short: (§1)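 Rated visually on 0–100 (100 = complete control) after 13–15 days under glass. Treatments went onto freshly seeded loam/sand soil or onto emerged plants at the 1- to 4-leaf stage, using a surfactant-containing solvent formulation.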
# galium [2] = test: Test C postemergence; format: in vivo, Galium aparine; details: Galium, post-emergence
# In short: as §1
# morningglory = test: Test C preemergence; format: in vivo, Ipomoea coccinea
# In short: as §1
# barnyardgrass [3] = test: Test A postemergence; format: in vivo, Echinochloa crus-galli
# In short: (§2)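 Visual 0–100 rating (100 = complete control) taken about 10 d post-treatment relative to untreated checks. Preemergence: directed soil spray on sown loam/sand pots. Postemergence: seedlings 2–10 cm, 1–2 leaf. Non-phytotoxic solvent formulation with surfactant.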
# chickweed = test: Test C postemergence; format: in vivo, Stellaria media; details: Stellaria media, post-emergence
# In short: as §1
# johnsongrass = test: Test C postemergence; format: in vivo, Sorghum halepense; details: Sorghum halepense, post-emergence
# In short: as §1
# soybean [4] = test: Test C preemergence; format: in vivo, Glycine max
# In short: as §1
# soybean [5] = test: Test C postemergence; format: in vivo, Glycine max; details: Glycine max, post-emergence
# In short: as §1
# barnyardgrass [6] = test: Test B flooded paddy test; format: in vivo, Echinochloa crus-galli; details: Flood, 250 g ai/ha, 0 to 100 scale where 0 is no effect and 100 is complete control
# In short: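 Post-emergence paddy-water application at the 2-leaf stage, with 3 cm flood kept for the whole test. Response was judged visually relative to controls after 13 to 15 greenhouse days, 0 indicating no effect and 100 complete control.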
# velvetleaf = test: Test C postemergence; format: in vivo, Abutilon theophrasti; details: Abutilon theophrasti, post-emergence
# In short: as §1
# giant foxtail = test: Test A preemergence; format: in vivo, Setaria faberii
# In short: as §2
# pigweed = test: Test A postemergence; format: in vivo, Amaranthus retroflexus
# In short: as §2
# barnyardgrass [7] = test: Test C preemergence; format: in vivo, Echinochloa crus-galli; details: for Barnyardgrass plant response rating: preemergence
# Description: (§3) Seeds of plant species selected from blackgrass (Alopecurus myosuroides), Italian ryegrass (Lolium multiflorum), wheat, winter (winter wheat, Triticum aestivum), galium (catchweed bedstraw, Galium aparine), corn (Zea mays), large (Lg) crabgrass (Digitaria sanguinalis), giant foxtail (Setaria faberii), johnsongrass (Sorghum halepense), lambsquarters (Chenopodium album), morningglory (Ipomoea coccinea), yellow nutsedge (Cyperus esculentus), pigweed (Amaranthus retroflexus), ragweed (common ragweed, Ambrosia elatior), soybean (Glycine max), barnyardgrass (Echinochloa crus-galli), oilseed rape (Brassica napus), waterhemp (common waterhemp, Amaranthus rudis), kochia (Kochia scoparia), wild oat (Avena fatua), surinam grass (Brachiaria decumbens), foxtail, green (green foxtail, Setaria viridis), goosegrass (Eleusine indica), bromegrass, downy (downy bromegrass, Bromus tectorum), nightshade (eastern black nightshade, Solanum ptycanthum), cocklebur (common cocklebur, Xanthium strumarium), cupgrass, woolly (woolly cupgrass, Eriochloa villosa), bermudagrass (Cynodon dactylon), sunflower, (common oilseed sunflower, Helianthus annuus), Russian thistle (Salsola kali), and velvetleaf (Abutilon theophrasti) were planted into a blend of loam soil and sand and treated preemergence with test chemicals formulated in a non-phytotoxic solvent mixture which included a surfactant.
# (§4) At the same time, plants selected from these crop and weed species and also barley, winter (winter barley, Hordeum vulgare), windgrass (Apera spica-venti), chickweed (common chickweed, Stellaria media), deadnettle (henbit deadnettle, Lamium amplexicaule), and canarygrass (littleseed canarygrass, Phalaris minor) were planted in pots containing Redi-Earth® planting medium (Scotts Company, 14111 Scottslawn Road, Marysville, Ohio 43041) comprising spaghnum peat moss, vermiculite, wetting agent and starter nutrients and treated with postemergence applications of test chemicals formulated in the same manner. Plants ranged in height from 2 to 18 cm (1- to 4-leaf stage) for postemergence treatments. Treated plants and controls were maintained in a greenhouse for 13 to 15 days, after which time all species were compared to controls and visually evaluated. Plant response ratings, summarized in Table C, are based on a scale of 0 to 100 where 0 is no effect and 100 is complete control. A dash (-) response means no test result.
# waterhemp = test: Test C preemergence; format: in vivo, Amaranthus rudis; details: preemergence
# Description: as §3, §4
# oilseed rape = test: Test C preemergence; format: in vivo, Brassica napus; details: preemergence
# Description: as §3, §4
# [8] = 16 g ai/ha, preemergence, scale 0 to 100 (0 no effect, 100 complete control)
# [9] = 62 g ai/ha, preemergence, scale 0 (no effect) to 100 (complete control)
# [10] = 125 g ai/ha, preemergence, scale 0 (no effect) to 100 (complete control)
# [11] = 31 g ai/ha, 0 to 100 scale, 0 no effect, 100 complete control
# [12] = 125 g ai/ha, 0 to 100 scale where 0 is no effect and 100 is complete control
# [13] = 16 g ai/ha, scale 0 to 100 (0 no effect, 100 complete control)
# [14] = 62 g ai/ha, scale 0 (no effect) to 100 (complete control)
# [15] = 125 g ai/ha, scale 0 (no effect) to 100 (complete control)
smiles,measurement,setting,value
"Clc1cnc(Oc2ccccc2-n2cc(Br)cn2)nc1 [Compound 7, 2-[2-(4-bromo-1H-pyrazol-1-yl)phenoxy]-5-chloropyrimidine]",pest or weed control at 62 g/ha,"galium [1]; 62 g ai/ha, preemergence, scale 0 (no effect) to 100 (complete control), read-out: Galium plant response rating",100%
same,pest or weed control at 125 g/ha,"galium [1]; 125 g ai/ha, preemergence, scale 0 (no effect) to 100 (complete control), read-out: Galium plant response rating",100%
same,pest or weed control at 250 g/ha,"galium [1]; 250 g ai/ha, preemergence, scale 0 (no effect) to 100 (complete control), read-out: Galium plant response rating",100%
same,pest or weed control at 31 g/ha,"galium [1]; Preemergence, 31 g ai/ha, scale 0 to 100, 0 no effect, 100 complete control, read-out: Plant response rating, Galium",85%
same,pest or weed control at 125 g/ha,"galium [2]; 125 g ai/ha, postemergence, read-out: Plant response rating (0 to 100), Galium",90%
same,pest or weed control at 250 g/ha,"galium [2]; 250 g ai/ha, postemergence, read-out: Plant response rating (0 to 100), Galium",98%
same,pest or weed control at 31 g/ha,"galium [2]; Postemergence, 31 g ai/ha, scale 0 to 100 (0 no effect, 100 complete control), 13 to 15 days, read-out: Plant response rating, Galium",65%
same,pest or weed control at 62 g/ha,"galium [2]; Postemergence, 62 g ai/ha, scale 0 to 100 (0 no effect, 100 complete control), read-out: Plant response rating, Galium",80%
same,pest or weed control at 62 g/ha,"morningglory; Ipomoea, pre-emergence, 62 g ai/ha, preemergence, scale 0 (no effect) to 100 (complete control), read-out: Morningglory plant response rating",0%
same,pest or weed control at 125 g/ha,"morningglory; Ipomoea, pre-emergence, 125 g ai/ha, preemergence, scale 0 (no effect) to 100 (complete control), read-out: Morningglory plant response rating",10%
same,pest or weed control at 250 g/ha,"morningglory; Ipomoea, pre-emergence, 250 g ai/ha, preemergence, scale 0 (no effect) to 100 (complete control), read-out: Morningglory plant response rating",40%
same,pest or weed control at 31 g/ha,"morningglory; Ipomoea, pre-emergence, Preemergence, 31 g ai/ha, scale 0 to 100, 0 no effect, 100 complete control, read-out: Plant response rating, Morningglory",0%
same,pest or weed control at 125 g/ha,"barnyardgrass [3]; Echinochloa crus-galli, post-emergence, 240 h, 125 g ai/ha, 0 to 100 scale where 0 is no effect and 100 is complete control, read-out: Plant response rating, Barnyardgrass",90%
same,pest or weed control at 500 g/ha,"barnyardgrass [3]; Echinochloa crus-galli, post-emergence, 240 h, 500 g ai/ha, 0 to 100 scale, 0 no effect, 100 complete control, read-out: Plant response rating Barnyardgrass",100%
same,pest or weed control at 125 g/ha,"chickweed; 125 g ai/ha, postemergence, read-out: Plant response rating (0 to 100), Chickweed",90%
same,pest or weed control at 250 g/ha,"chickweed; 250 g ai/ha, postemergence, read-out: Plant response rating (0 to 100), Chickweed",98%
same,pest or weed control at 31 g/ha,"chickweed; Postemergence, 31 g ai/ha, scale 0 to 100 (0 no effect, 100 complete control), 13 to 15 days, read-out: Plant response rating, Chickweed",80%
same,pest or weed control at 125 g/ha,"johnsongrass; 125 g ai/ha, postemergence, read-out: Plant response rating (0 to 100), Johnsongrass",5%
same,pest or weed control at 250 g/ha,"johnsongrass; 250 g ai/ha, postemergence, read-out: Plant response rating (0 to 100), Johnsongrass",10%
same,pest or weed control at 31 g/ha,"johnsongrass; Postemergence, 31 g ai/ha, scale 0 to 100 (0 no effect, 100 complete control), 13 to 15 days, read-out: Plant response rating, Johnsongrass",0%
same,pest or weed control at 62 g/ha,"johnsongrass; Postemergence, 62 g ai/ha, scale 0 to 100 (0 no effect, 100 complete control), read-out: Plant response rating, Johnsongrass",0%
same,plant injury at 62 g/ha,"soybean [4]; Glycine max, pre-emergence, 62 g ai/ha, preemergence, scale 0 (no effect) to 100 (complete control), read-out: Soybean plant response rating",40%
same,plant injury at 125 g/ha,"soybean [4]; Glycine max, pre-emergence, 125 g ai/ha, preemergence, scale 0 (no effect) to 100 (complete control), read-out: Soybean plant response rating",60%
same,plant injury at 250 g/ha,"soybean [4]; Glycine max, pre-emergence, 250 g ai/ha, preemergence, scale 0 (no effect) to 100 (complete control), read-out: Soybean plant response rating",98%
same,plant injury at 31 g/ha,"soybean [4]; Glycine max, pre-emergence, Preemergence, 31 g ai/ha, scale 0 to 100, 0 no effect, 100 complete control, read-out: Plant response rating, Soybean",15%
same,"Soybean plant response rating (crop injury, 0-100 scale) at 125 g/ha","soybean [5]; 125 g ai/ha, postemergence, read-out: Plant response rating (0 to 100), Soybean",98%
same,"Soybean plant response rating (crop injury, 0-100 scale) at 250 g/ha","soybean [5]; 250 g ai/ha, postemergence",98%
same,"Soybean plant response rating (crop injury, 0-100 scale) at 31 g/ha","soybean [5]; Postemergence, 31 g ai/ha, scale 0 to 100 (0 no effect, 100 complete control), 13 to 15 days",85%
same,"Soybean plant response rating (crop injury, 0-100 scale) at 62 g/ha","soybean [5]; Postemergence, 62 g ai/ha, scale 0 to 100 (0 no effect, 100 complete control)",98%
same,pest or weed control at 250 g/ha,"barnyardgrass [6]; Echinochloa crus-galli, read-out: Plant response rating, Barnyardgrass",30%
same,pest or weed control at 125 g/ha,"velvetleaf; 125 g ai/ha, postemergence, read-out: Plant response rating (0 to 100), Velvetleaf",85%
same,pest or weed control at 250 g/ha,"velvetleaf; 250 g ai/ha, postemergence, read-out: Plant response rating (0 to 100), Velvetleaf",85%
same,pest or weed control at 31 g/ha,"velvetleaf; Postemergence, 31 g ai/ha, scale 0 to 100 (0 no effect, 100 complete control), 13 to 15 days, read-out: Plant response rating, Velvetleaf",40%
same,pest or weed control at 62 g/ha,"velvetleaf; Postemergence, 62 g ai/ha, scale 0 to 100 (0 no effect, 100 complete control), read-out: Plant response rating, Velvetleaf",50%
same,pest or weed control at 125 g/ha,"giant foxtail; Setaria faberi, pre-emergence, 240 h, 125 g ai/ha, 0 to 100 scale where 0 is no effect and 100 is complete control, read-out: Foxtail, Giant plant response rating",100%
same,pest or weed control at 500 g/ha,"giant foxtail; Setaria faberi, pre-emergence, 240 h, 500 g ai/ha, 0 to 100 scale, 0 no effect, 100 complete control, approx. 10 days, read-out: Foxtail, Giant plant response rating",100%
same,pest or weed control at 125 g/ha,"pigweed; Amaranthus retroflexus, post-emergence, 125 g ai/ha, 0 to 100 scale where 0 is no effect and 100 is complete control, read-out: Plant response rating, Pigweed",100%
same,pest or weed control at 500 g/ha,"pigweed; Amaranthus retroflexus, post-emergence, 240 h, 500 g ai/ha, 0 to 100 scale, 0 no effect, 100 complete control, read-out: Plant response rating Pigweed",100%
N#Cc1cnn(-c2c(CF)cccc2Oc2ncc(F)cn2)c1 [Compound 151],Morningglory plant response rating,morningglory; [8],0
same,Morningglory plant response rating,morningglory; [9],10
same,Morningglory plant response rating,morningglory; [10],25
same,"Plant response rating, Barnyardgrass",barnyardgrass [3]; [11],0
same,Barnyardgrass plant response rating,barnyardgrass [3]; [12],60
same,Soybean plant response rating,soybean [4]; [8],35
same,Soybean plant response rating,soybean [4]; [9],85
same,Soybean plant response rating,soybean [4]; [10],95
same,Barnyardgrass plant response rating,barnyardgrass [7]; [13],5
same,Barnyardgrass plant response rating,barnyardgrass [7]; [14],70
same,Barnyardgrass plant response rating,barnyardgrass [7]; [15],100
same,"Plant response rating, Barnyardgrass","barnyardgrass [7]; Preemergence, 31 g ai/ha, scale 0 to 100, 0 no effect, 100 complete control",5
same,"Plant response rating, Barnyardgrass",barnyardgrass [6],0
same,Waterhemp plant response rating,waterhemp; [13],95
same,Waterhemp plant response rating,waterhemp; [14],100
same,Waterhemp plant response rating,waterhemp; [15],100
same,Oilseed Rape plant response rating,oilseed rape; [13],95
same,Oilseed Rape plant response rating,oilseed rape; [14],100
same,Oilseed Rape plant response rating,oilseed rape; [15],100
same,"Plant response rating, Foxtail, Giant","giant foxtail; 31 g ai/ha, 0 to 100 scale where 0 is no effect and 100 is complete control, visual, approximately 10 days",100
same,"Plant response rating, Foxtail, Giant",giant foxtail; [12],100
same,"Plant response rating, Pigweed",pigweed; [11],20
same,Pigweed plant response rating,pigweed; [12],70

# Source: patent publication US9695155B2, “Herbicidal substituted pyrimidinyloxy benzene compounds” (E. I. DU PONT DE NEMOURS AND COMPANY, priority 2013, dated 2017)
